Experimental data taken from PubChem BioAssay (NCI).
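Method: 48-hour compound exposure of cells in 96-well plates, five concentrations, linear interpolation of endpoints. GI50 = concentration required for 50% inhibition of growth. TGI: concentration producing complete growth inhibition.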

What was measured:
Assay in all cases: NCI-60 cell line screen, 48 h
[1] = system: OVCAR-3 ovarian
[2] = system: SK-MEL-5 melanoma
[3] = system: RPMI-8226 leukemia
[4] = system: SK-MEL-28 melanoma
[5] = system: EKVX NSCLC
[6] = system: SNB-19 CNS
[7] = system: ACHN renal
[8] = system: RXF 393 renal
[9] = system: SF-539 CNS
[10] = system: M14 melanoma

Question: Which results are given for `Cc1cc2cn3c4ccc(O)cc4[nH]c(=O)c3c2cc1C`?
Answer: GI50 [1]: 0.0125 µM; TGI [1]: 0.0399 µM; GI50 [2]: 0.0272 µM; TGI [2]: 0.231 µM; GI50 [3]: 0.252 µM; TGI [3]: 3.28 µM; GI50 [4]: 0.0346 µM; TGI [4]: 1.74 µM; GI50 [5]: 0.403 µM; TGI [5]: 1.85 µM; GI50 [6]: 0.0358 µM; TGI [6]: 1.68 µM; GI50 [7]: 0.0471 µM; TGI [7]: 1.64 µM; GI50 [8]: 0.0258 µM; TGI [8]: 1.43 µM; GI50 [9]: 0.0223 µM; TGI [9]: 0.0601 µM

Question: `O=C(O)/C(Cl)=C(\Cl)C(=O)NC1C2CC3CC(C2)CC1C3` (stereo unspecified) was tested. Which TGI [10] did it give?
Answer: > 100 µM

Question: And the TGI [1]?
Answer: > 100 µM

Question: And the TGI [2]?
Answer: > 100 µM

Question: What about the TGI [3] of the same compound?
Answer: > 100 µM

Question: What about the TGI [4] of the same compound?
Answer: > 100 µM

Question: And the TGI [5]?
Answer: > 100 µM

Question: What about the TGI [6] of the same compound?
Answer: > 100 µM

Question: What about the TGI [7] of the same compound?
Answer: > 100 µM

Question: And the TGI [9]?
Answer: > 100 µM

Question: Which results are given for `OC(COc1ccc(F)cc1)Cn1cnc2c(Cl)ncnc21` (stereo unspecified)?
Answer: GI50 [1]: 74 µM; TGI [1]: > 100 µM; GI50 [2]: 81.4 µM; TGI [2]: > 100 µM; GI50 [3]: 39.7 µM; TGI [3]: > 100 µM; GI50 [4]: > 100 µM; TGI [4]: > 100 µM; GI50 [5]: > 100 µM; TGI [5]: > 100 µM; GI50 [6]: > 100 µM; TGI [6]: > 100 µM; GI50 [7]: 62.4 µM; TGI [7]: > 100 µM; GI50 [8]: 1.78 µM; TGI [8]: 44.4 µM; GI50 [9]: > 100 µM; TGI [9]: > 100 µM

Question: Which GI50 [10] does the source give for `Clc1ccc(C2=Nn3c(nnc3-c3cc(Cl)cc(Cl)c3Cl)SC2)cc1` here?
Answer: 29 µM

Question: What about the TGI [10] of the same compound?
Answer: > 100 µM

Question: And the GI50 [1]?
Answer: 21.2 µM

Question: And the TGI [1]?
Answer: 50.8 µM

Question: What about the GI50 [2] of the same compound?
Answer: 23.5 µM

Question: What about the TGI [2] of the same compound?
Answer: > 100 µM

Question: What about the GI50 [3] of the same compound?
Answer: 44.3 µM

Question: And the TGI [3]?
Answer: > 100 µM

Question: And the GI50 [4]?
Answer: > 100 µM

Question: And the TGI [4]?
Answer: > 100 µM

Question: And the GI50 [5]?
Answer: 45.1 µM

Question: And the TGI [5]?
Answer: > 100 µM

Question: And the GI50 [6]?
Answer: 15.6 µM

Question: What about the TGI [6] of the same compound?
Answer: 36.2 µM

Question: What about the GI50 [7] of the same compound?
Answer: 15.5 µM

Question: What about the TGI [7] of the same compound?
Answer: 45.5 µM

Question: And the GI50 [9]?
Answer: 20.1 µM

Question: And the TGI [9]?
Answer: 48.3 µM

Question: What does the source list for `COC(=O)NC1(NC(=O)OC)NC(=O)c2cc(OC)c(OC)c(OC)c2N1`?
Answer: TGI [10]: > 100 µM; TGI [1]: > 100 µM; TGI [2]: > 100 µM; TGI [4]: > 100 µM; TGI [5]: > 100 µM; TGI [6]: > 100 µM; TGI [7]: > 100 µM; TGI [9]: > 100 µM

Question: `COC(=O)Nc1nc2ccc(C(=O)c3ccc(N(C)C4COC4)cc3)cc2[nH]1` was tested. Which GI50 [10] did it give?
Answer: 0.279 µM

Question: And the TGI [10]?
Answer: > 100 µM

Question: And the GI50 [1]?
Answer: 0.375 µM

Question: What about the TGI [1] of the same compound?
Answer: > 100 µM

Question: And the GI50 [2]?
Answer: 0.425 µM

Question: What about the TGI [2] of the same compound?
Answer: 3.99 µM

Question: What about the GI50 [3] of the same compound?
Answer: 0.369 µM

Question: What about the TGI [3] of the same compound?
Answer: > 47.5 µM

Question: What about the GI50 [4] of the same compound?
Answer: > 100 µM

Question: What about the TGI [4] of the same compound?
Answer: > 100 µM

Question: And the GI50 [5]?
Answer: 0.708 µM

Question: What about the TGI [5] of the same compound?
Answer: > 100 µM

Question: What about the GI50 [6] of the same compound?
Answer: 0.435 µM

Question: And the TGI [6]?
Answer: > 100 µM

Question: What about the GI50 [7] of the same compound?
Answer: 0.846 µM

Question: What about the TGI [7] of the same compound?
Answer: > 100 µM

Question: What about the GI50 [9] of the same compound?
Answer: 0.264 µM

Question: What about the TGI [9] of the same compound?
Answer: 1.16 µM

Question: `CCN1C2=NCCN2S(=O)(=O)c2ccccc21` was tested. Which TGI [10] did it give?
Answer: > 100 µM

Question: What about the TGI [1] of the same compound?
Answer: > 100 µM

Question: And the TGI [2]?
Answer: > 100 µM

Question: And the TGI [4]?
Answer: > 100 µM

Question: And the TGI [5]?
Answer: > 100 µM

Question: And the TGI [6]?
Answer: > 100 µM

Question: And the TGI [7]?
Answer: > 100 µM

Question: What about the TGI [8] of the same compound?
Answer: > 100 µM

Question: What about the TGI [9] of the same compound?
Answer: > 100 µM

Question: Which results are given for `CC(=O)[O-].[Mn+3].[O-]c1ccccc1C=NCCN=Cc1ccccc1[O-]`?
Answer: GI50 [10]: > 100 µM; TGI [10]: > 100 µM; GI50 [1]: 17 µM; TGI [1]: > 100 µM; GI50 [2]: 94.8 µM; TGI [2]: > 100 µM; GI50 [4]: > 100 µM; TGI [4]: > 100 µM; GI50 [5]: > 100 µM; TGI [5]: > 100 µM; GI50 [6]: > 100 µM; TGI [6]: > 100 µM; GI50 [7]: > 100 µM; TGI [7]: > 100 µM; GI50 [8]: > 100 µM; TGI [8]: > 100 µM; GI50 [9]: > 100 µM; TGI [9]: > 100 µM
